Data as given in ChEMBL document CHEMBL1201862, “PubChem BioAssay data set” (2004).
“And” between values parts separate entries of the source, which are not always exact repeats. Equal values may be shown once. The source made the active and inactive calls. Rule as the data show it, for most assays here: actives have a measured EC50 and inactives only a lower limit.

How the values were obtained:
[1] = inhibitors of intracellular T. cruzi replication, confirmation, NIH3T3 host cells, beta-gal luminescence (AID 2044); assay type: functional, cell-based;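 also: intracellular parasites grown in NIH/3T3 mouse fibroblasts as host cells; luminescent beta-galactosidase reporter signal from transgenic T. cruzi replicating inside host cells; inhibitors lower the luminescence signal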
[2] = cytotoxicity toward NIH3T3 fibroblasts, dose response, counter-screen, cell-based, ATP luminescence, mouse fibroblasts (AID 2010); assay type: functional;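 also: cells exposed to compound for about 90 hours before reading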
[3] = target: Cytochrome P450 2D6 (Homo sapiens, UniProt P10635);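 also: CYP2D6 member of a cytochrome P450 panel assay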
[4] = target: T1, Heat shock factor protein 1 (Mus musculus, UniProt P38532); assay: HSF1 potentiators in luciferase reporter cells, confirmation, cell-based, NIH3T3, luminescence, dose retest (AID 435004); assay type: functional;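 also: stress induced by proteasome inhibitor MG132 added 30 min after compound; luciferase reporter driven by HSF1 response element in NIH3T3 cells; actives raise luminescence as potentiators of the MG132 stress response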
T1 sequence (P38532 whole entry): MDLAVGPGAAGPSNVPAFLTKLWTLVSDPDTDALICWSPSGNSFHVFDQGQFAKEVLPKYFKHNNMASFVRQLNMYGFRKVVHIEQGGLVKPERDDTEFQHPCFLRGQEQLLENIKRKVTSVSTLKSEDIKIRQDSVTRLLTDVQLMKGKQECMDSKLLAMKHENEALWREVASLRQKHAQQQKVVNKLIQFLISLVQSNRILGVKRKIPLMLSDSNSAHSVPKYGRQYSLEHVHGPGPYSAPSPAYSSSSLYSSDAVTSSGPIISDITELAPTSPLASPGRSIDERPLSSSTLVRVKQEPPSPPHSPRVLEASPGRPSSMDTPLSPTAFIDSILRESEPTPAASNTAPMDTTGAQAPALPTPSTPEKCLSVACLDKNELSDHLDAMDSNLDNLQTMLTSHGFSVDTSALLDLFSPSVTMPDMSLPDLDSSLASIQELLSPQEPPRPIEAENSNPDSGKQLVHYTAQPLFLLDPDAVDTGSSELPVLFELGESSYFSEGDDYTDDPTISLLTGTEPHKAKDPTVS

[5] = target: T2, Cytochrome P450 1A2 (Homo sapiens, UniProt P05177);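 also: PubChem cytochrome P450 panel assay, CYP1A2 panel member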
T2 sequence (P05177 whole entry): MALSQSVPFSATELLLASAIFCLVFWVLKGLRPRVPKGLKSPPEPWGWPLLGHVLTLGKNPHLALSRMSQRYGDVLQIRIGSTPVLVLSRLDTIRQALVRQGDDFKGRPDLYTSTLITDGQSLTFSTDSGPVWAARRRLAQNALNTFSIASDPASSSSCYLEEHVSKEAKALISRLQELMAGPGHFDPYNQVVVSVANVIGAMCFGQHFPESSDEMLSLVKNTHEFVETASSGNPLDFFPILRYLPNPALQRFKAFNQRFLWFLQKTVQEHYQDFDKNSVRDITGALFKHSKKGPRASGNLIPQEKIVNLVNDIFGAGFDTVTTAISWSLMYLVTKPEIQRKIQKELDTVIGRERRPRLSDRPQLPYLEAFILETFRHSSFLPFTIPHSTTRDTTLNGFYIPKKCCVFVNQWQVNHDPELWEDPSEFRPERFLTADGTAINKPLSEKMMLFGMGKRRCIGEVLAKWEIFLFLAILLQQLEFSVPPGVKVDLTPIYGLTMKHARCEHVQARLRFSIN

[6] = target: Cytochrome P450 3A4 (Homo sapiens, UniProt P08684);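 also: CYP3A4 tested as one member of a cytochrome P450 panel screen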
[7] = system: Streptococcus sp. 'group A'; assay: growth inhibition of control SK(-) GAS strain, dose response, counter-screen for streptokinase expression inhibitor project, luminescence, kanamycin, BacTiterGlo, confirmation (AID 1900); assay type: functional, organism-based

Chain of Cytochrome P450 2D6 (P10635 whole entry): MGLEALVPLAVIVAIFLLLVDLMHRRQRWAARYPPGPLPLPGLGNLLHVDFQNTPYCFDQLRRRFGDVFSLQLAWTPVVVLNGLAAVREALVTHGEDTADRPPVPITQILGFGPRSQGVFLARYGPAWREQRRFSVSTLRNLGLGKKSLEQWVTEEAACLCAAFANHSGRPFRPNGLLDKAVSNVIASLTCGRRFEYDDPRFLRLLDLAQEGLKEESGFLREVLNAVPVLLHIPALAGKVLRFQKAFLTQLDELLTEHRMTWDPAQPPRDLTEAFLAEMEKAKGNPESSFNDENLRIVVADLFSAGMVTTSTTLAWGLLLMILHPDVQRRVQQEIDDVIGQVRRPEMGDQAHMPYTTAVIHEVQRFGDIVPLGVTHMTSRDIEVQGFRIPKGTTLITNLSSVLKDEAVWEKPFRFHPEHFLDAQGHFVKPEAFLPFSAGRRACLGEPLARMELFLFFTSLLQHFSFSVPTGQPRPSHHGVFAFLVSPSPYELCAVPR
Chain of Cytochrome P450 3A4 (P08684 whole entry): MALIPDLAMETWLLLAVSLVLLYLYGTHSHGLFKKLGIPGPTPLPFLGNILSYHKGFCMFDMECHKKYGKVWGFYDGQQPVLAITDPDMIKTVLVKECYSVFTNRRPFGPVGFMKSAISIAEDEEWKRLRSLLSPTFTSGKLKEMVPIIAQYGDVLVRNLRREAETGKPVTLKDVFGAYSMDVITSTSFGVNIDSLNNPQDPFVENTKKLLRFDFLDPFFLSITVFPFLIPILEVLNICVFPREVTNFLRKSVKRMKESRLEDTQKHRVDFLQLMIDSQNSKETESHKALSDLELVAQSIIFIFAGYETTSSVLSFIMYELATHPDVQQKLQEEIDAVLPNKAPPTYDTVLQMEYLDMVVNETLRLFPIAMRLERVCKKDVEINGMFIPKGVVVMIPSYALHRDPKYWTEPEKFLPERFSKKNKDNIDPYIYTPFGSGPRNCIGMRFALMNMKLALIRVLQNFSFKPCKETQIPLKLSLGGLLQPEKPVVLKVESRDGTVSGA

CCCOc1ccc(N2C(=O)CC(N(CCc3ccc(OC)c(OC)c3)C(S)=Nc3ccccc3)C2=O)cc1 (stereo not drawn)
EC50 [1]: 2.1 µM (active) | EC50 [2]: > 30 µM (not active)

CCCOc1ccc(NC(=O)OC2CCN(C)CC2)cc1
EC50 [1]: 0.442 µM (active) | EC50 [2]: > 60 µM (not active)

CS(=O)(=O)Nc1cccc(-c2nccc(Nc3ccc(F)cc3)n2)c1
AC50 [3]: 39.8 µM (inconclusive)

CCOc1cc(CNc2cccc3ccccc23)cc(Br)c1OCC(=O)NC(C)(C)C
EC50 [1]: 2.31 µM (active) | EC50 [2]: > 30 µM (not active)

CC(=O)Nc1cccc(-n2nnc(SCC(=O)Nc3ccc(F)c(Cl)c3)n2)c1
EC50 [4]: > 260 µM (inactive)

O=C(Nc1nnc(SCc2ccc(Cl)cc2)s1)c1ccco1
AC50 [5]: 3.16 µM (inconclusive) | AC50 [6]: 31.6 µM (inconclusive)

CCCCOc1ccc(/C=C/C(=O)NCCc2nc3ccccc3[nH]2)cc1
AC50 [3]: 14.1 µM (inconclusive)

Cc1cc(NC(=O)c2cccs2)n(-c2nc3ccccc3[nH]2)n1
EC50 [1]: 1.95 µM (active) | EC50 [2]: 14.2 µM (active)

CN(C)c1ncc2nc(-c3ccc(F)cc3)c(=O)n(CCc3ccccc3)c2n1
AC50 [5]: 2.51 µM (inconclusive)

Cc1c(N(C)S(=O)(=O)c2cccc(C(=O)NC(C)C)c2)c(=O)n(-c2ccccc2)n1C
EC50 [4]: > 260 µM (inactive)

CCc1cccc(CC)c1NC(=O)COC(=O)CC1c2ccccc2CCN1S(=O)(=O)c1ccc(F)cc1 (stereo not drawn)
EC50 [4]: > 260 µM (inactive)

CCN(CCCNC(=O)CNC(=O)c1nn(-c2ccc(OC)cc2OC)c(=O)c2ccccc12)c1cccc(C)c1
EC50 [4]: > 260 µM (inactive)

COc1cc2c(cc1OC)C(C(=O)N1CCOCC1)C(c1cccs1)N(C)C2=O (stereo not drawn)
AC50 [6]: 25.1 µM (inconclusive)

O=[N+]([O-])c1ccc(S(=O)(=O)NCCS(=O)(=O)N2CCN(c3ccccc3)CC2)cc1
EC50 [1]: 0.247 µM (active) | EC50 [2]: > 60 µM (not active)

COc1ccc(NC(=O)N2CCC3(CC2)CCN(C(=O)c2ccncc2)CC3)cc1
AC50 [5]: 25.1 µM (inconclusive) | AC50 [6]: 15.8 µM (inconclusive)

CN(C)C(=O)c1ccc(-c2nc(NCc3cccs3)c3ccccc3n2)cc1
AC50 [3]: 25.1 µM (inconclusive)

COC(=O)C(NNc1ccccc1C)(NC(=O)c1ccc(F)cc1)C(F)(F)F (stereo not drawn)
EC50 [4]: > 260 µM (inactive)

N#Cc1ccc(CN2CC3(CCN(C(=O)c4ccncc4)CC3)C2)cc1
AC50 [6]: 12.6 µM (inconclusive)

COCC(=O)N1CCC2(CC1)CN(c1ccncc1)C2
AC50 [3]: 25.1 µM (inconclusive)

O=C(NNc1c(Cl)cccc1Cl)C1CCC1
EC50 [4]: > 260 µM (inactive)

CC(C)(C)c1cc(NC(=O)CCSc2nnc3ccccn23)cc(C(C)(C)C)c1
EC50 [4]: > 260 µM (inactive)

Cc1nn(CC(=O)NCc2ccccc2)c(C)c1[N+](=O)[O-]
AC50 [6]: 22.4 µM (inconclusive)

CC(=O)Nc1sc2c(c1CN1CCN(C)CC1)CCCC2
AC50 [5]: 17.8 µM (inconclusive)

Cc1cnn(-c2cc(N/N=C/c3cccc(F)c3)ncn2)c1
EC50 [4]: > 260 µM (inactive)

C(=N\N1CCN(Cc2cccc3ccccc23)CC1)/c1cccnc1
EC50 [4]: > 260 µM (inactive)

CCOc1cc(/C=N/O)cc(Cl)c1OC
AC50 [6]: 31.6 µM (inconclusive)

COc1cc(/C=N/Nc2snc(SC)c2C#N)cc(OC)c1OC
AC50 [3]: 12.6 µM (inconclusive)

C/C(=N\Nc1nc(N2CCCCC2)nc(N2CCOCC2)n1)c1ccccc1O
EC50 [1]: 0.681 µM (active) | EC50 [2]: 6.37 µM (active)

CN(C)CCCCNCCCNC(=O)/C=N\O
EC50 [4]: > 260 µM (inactive)

CC1(C)CC[C@]2(C(=O)O)CC[C@]3(C)C(=CCC4[C@@]5(C)CC[C@H](O)C(C)(C)C5CC[C@]43C)C2C1 (stereo partly drawn)
EC50 [7]: 2.6 µM (active)

O=C(Nc1ccccc1)/C(=C\c1ccncc1)NC(=O)c1ccccc1
AC50 [5]: 15.8 µM (inconclusive) | AC50 [6]: 0.794 µM (inconclusive)

Cc1cc(Cn2ccnc2)c(C)c([N+](=O)[O-])c1Cn1ccnc1
EC50 [1]: 2.05 µM (active) | EC50 [2]: > 60 µM (not active)

COc1ccc2c(c1)c(CC(=O)O)c(C)n2C(=O)c1ccc(Cl)cc1 [INDOMETHACIN]
AC50 [5]: 10 µM (inconclusive) and 39.8 µM (inconclusive)
